Source: the kinase profiling compilation of Christmann-Franck et al. (2016)

Assays:
Test in all cases: KINOMEscan competition binding
Settings in all cases: compound 10.0 µM
MAP3K9 (human) = MAP3K9 (human) (UniProt P80192)
MLTK (human) = MLTK (human) (UniProt Q9NYL2)
MYLK (human) = MYLK (human) (UniProt Q15746)
STK3 (human) = STK3 (human) (UniProt Q13188)
TAOK2 (human) = TAOK2 (human) (UniProt Q9UL54)
TNIK (human) = TNIK (human) (UniProt Q9UKE5)
MARK3 (human) = MARK3 (human) (UniProt P27448)
FGFR1 (human) = FGFR1 (human) (UniProt P11362)
PIK3CD (human) = PIK3CD (human) (UniProt O00329)
HIPK1 (human) = HIPK1 (human) (UniProt Q86Z02)
MTOR (human) = MTOR (human) (UniProt P42345)
STK36 (human) = STK36 (human) (UniProt Q9NRP7)
MAP3K11 (human) = MAP3K11 (human) (UniProt Q16584)
TNNI3K (human) = TNNI3K (human) (UniProt Q59H18)
AURKC (human) = AURKC (human) (UniProt Q9UQB9)
[1] = target: JAK1 JH2 pseudokinase (human) (UniProt P23458)
SLK (human) = SLK (human) (UniProt Q9H2G2)
ROS1 (human) = ROS1 (human) (UniProt P08922)
PRKX (human) = PRKX (human) (UniProt P51817)
FRK (human) = FRK (human) (UniProt P42685)
MYLK4 (human) = MYLK4 (human) (UniProt Q86YV6)
PAK7 (human) = PAK7 (human) (UniProt Q9P286)
TRPM6 (human) = TRPM6 (human) (UniProt Q9BX84)
STK35 (human) = STK35 (human) (UniProt Q8TDR2)
NUAK1 (human) = NUAK1 (human) (UniProt O60285)
MAPKAPK5 (human) = MAPKAPK5 (human) (UniProt Q8IW41)
TAOK1 (human) = TAOK1 (human) (UniProt Q7L7X3)
HCK (human) = HCK (human) (UniProt P08631)
TIE1 (human) = TIE1 (human) (UniProt P35590)
MAPK11 (human) = MAPK11 (human) (UniProt Q15759)
MKNK2 (human) = MKNK2 (human) (UniProt Q9HBH9)
[2] = test system: MET (human), P08581 [Y1235D]
SGK3 (human) = SGK3 (human) (UniProt Q96BR1)
RAF1 (human) = RAF1 (human) (UniProt P04049)
CDK17 (human) = CDK17 (human) (UniProt Q00537)
EPHB1 (human) = EPHB1 (human) (UniProt P54762)
ERBB4 (human) = ERBB4 (human) (UniProt Q15303)
RIPK1 (human) = RIPK1 (human) (UniProt Q13546)
CAMK2G (human) = CAMK2G (human) (UniProt Q13555)
PHKG2 (human) = PHKG2 (human) (UniProt P15735)
PHKG2 (human), sequence (P15735 whole entry, looked up): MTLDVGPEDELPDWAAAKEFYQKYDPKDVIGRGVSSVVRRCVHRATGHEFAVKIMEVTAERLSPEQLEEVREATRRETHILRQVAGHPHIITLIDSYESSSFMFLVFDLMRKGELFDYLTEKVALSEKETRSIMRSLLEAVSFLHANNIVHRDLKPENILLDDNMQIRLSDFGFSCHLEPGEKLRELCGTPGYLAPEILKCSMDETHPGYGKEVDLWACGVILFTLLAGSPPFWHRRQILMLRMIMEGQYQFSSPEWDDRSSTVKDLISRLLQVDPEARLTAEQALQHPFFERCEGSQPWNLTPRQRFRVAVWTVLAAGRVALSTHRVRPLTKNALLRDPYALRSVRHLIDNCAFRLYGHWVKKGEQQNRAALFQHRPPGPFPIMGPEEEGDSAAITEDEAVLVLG

PAK7 (human), sequence (Q9P286 whole entry, looked up): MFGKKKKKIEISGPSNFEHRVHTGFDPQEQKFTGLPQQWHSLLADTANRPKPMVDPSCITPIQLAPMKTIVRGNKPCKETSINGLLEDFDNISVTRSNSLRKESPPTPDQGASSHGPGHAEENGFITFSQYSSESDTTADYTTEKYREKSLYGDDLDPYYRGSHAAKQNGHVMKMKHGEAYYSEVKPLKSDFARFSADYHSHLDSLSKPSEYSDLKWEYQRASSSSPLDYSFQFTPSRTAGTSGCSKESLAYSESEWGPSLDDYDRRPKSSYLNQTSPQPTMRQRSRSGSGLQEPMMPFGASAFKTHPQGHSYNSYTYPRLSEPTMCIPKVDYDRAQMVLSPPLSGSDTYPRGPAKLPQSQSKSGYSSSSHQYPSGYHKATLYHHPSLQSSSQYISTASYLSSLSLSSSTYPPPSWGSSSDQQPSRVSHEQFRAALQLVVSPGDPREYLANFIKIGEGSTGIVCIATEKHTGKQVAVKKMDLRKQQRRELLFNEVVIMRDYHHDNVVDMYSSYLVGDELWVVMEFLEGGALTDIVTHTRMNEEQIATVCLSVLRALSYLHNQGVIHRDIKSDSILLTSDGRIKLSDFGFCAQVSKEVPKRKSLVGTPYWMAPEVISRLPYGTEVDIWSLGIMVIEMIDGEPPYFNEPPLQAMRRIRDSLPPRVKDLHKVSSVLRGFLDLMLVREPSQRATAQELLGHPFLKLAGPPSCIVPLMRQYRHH
RIPK1 (human), sequence (Q13546 whole entry, looked up): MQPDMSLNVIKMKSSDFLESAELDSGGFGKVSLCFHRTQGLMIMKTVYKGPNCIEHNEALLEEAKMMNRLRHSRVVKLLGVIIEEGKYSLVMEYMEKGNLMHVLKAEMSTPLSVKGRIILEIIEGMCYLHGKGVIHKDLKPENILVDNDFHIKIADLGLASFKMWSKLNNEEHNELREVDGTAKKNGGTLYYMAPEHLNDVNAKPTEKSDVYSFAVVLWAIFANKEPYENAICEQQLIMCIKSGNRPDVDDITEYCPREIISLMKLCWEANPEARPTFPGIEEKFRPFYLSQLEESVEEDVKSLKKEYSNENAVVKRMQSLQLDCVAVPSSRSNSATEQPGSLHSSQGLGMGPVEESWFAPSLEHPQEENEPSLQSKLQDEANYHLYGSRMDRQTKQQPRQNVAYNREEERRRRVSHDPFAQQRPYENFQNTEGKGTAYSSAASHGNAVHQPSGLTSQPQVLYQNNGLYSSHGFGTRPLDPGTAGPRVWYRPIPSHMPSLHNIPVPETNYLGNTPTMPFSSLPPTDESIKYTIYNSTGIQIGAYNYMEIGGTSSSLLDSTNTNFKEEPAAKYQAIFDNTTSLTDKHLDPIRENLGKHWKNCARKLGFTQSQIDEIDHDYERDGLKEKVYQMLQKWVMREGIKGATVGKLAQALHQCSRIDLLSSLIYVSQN
SGK3 (human), sequence (Q96BR1 whole entry, looked up): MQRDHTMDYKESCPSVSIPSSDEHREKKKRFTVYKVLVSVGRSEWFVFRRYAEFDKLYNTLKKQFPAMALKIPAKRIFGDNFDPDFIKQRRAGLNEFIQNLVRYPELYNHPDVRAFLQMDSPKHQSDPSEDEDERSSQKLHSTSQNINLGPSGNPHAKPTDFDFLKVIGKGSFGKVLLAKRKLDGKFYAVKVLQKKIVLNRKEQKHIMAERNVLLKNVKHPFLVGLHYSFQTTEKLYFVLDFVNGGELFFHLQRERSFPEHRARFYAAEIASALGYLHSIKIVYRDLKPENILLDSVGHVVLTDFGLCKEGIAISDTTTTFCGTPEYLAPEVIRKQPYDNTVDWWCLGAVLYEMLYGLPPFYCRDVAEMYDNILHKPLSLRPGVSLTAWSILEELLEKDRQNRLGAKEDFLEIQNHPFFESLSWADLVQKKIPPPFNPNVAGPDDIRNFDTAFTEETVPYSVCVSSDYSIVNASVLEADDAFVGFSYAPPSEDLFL
MARK3 (human), sequence (P27448 whole entry, looked up): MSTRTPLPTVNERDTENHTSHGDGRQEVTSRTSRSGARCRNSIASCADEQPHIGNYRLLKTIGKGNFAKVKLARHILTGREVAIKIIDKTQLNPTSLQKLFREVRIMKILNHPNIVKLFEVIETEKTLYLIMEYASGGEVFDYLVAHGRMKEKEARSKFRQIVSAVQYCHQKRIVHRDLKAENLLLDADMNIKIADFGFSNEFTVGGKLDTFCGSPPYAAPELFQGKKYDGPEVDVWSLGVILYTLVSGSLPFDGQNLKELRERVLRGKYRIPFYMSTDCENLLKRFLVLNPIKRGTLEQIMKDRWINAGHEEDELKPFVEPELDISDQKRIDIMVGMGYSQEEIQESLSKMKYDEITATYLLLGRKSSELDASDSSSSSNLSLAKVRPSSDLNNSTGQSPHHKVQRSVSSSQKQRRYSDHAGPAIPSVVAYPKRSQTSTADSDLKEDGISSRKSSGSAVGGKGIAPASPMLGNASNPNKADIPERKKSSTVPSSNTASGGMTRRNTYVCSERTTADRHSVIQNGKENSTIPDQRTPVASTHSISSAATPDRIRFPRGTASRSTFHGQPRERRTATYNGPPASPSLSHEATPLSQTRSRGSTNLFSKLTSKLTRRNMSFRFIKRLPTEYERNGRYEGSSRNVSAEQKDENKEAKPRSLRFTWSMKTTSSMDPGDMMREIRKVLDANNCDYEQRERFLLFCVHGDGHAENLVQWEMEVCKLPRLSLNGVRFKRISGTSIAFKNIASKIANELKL
MLTK (human), sequence (Q9NYL2 whole entry, looked up): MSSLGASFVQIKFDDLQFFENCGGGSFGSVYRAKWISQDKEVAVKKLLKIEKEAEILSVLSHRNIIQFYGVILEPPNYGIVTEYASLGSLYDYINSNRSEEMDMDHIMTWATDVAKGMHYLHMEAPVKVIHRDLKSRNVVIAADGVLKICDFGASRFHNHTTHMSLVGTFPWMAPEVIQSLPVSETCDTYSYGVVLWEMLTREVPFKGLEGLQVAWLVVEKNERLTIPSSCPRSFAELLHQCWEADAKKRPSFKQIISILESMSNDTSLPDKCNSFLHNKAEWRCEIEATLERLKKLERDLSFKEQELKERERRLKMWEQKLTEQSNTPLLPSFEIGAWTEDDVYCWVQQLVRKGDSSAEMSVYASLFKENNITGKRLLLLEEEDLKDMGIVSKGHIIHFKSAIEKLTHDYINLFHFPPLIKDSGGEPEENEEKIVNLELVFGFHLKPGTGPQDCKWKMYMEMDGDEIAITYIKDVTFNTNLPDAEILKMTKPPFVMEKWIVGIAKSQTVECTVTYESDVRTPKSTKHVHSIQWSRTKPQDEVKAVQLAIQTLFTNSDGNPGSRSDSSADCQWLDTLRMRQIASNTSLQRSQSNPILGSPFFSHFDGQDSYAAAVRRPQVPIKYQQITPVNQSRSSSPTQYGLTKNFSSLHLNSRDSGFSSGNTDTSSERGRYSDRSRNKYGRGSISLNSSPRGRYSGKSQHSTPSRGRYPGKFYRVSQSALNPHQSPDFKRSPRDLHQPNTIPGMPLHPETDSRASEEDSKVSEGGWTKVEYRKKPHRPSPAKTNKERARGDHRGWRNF
MAPKAPK5 (human), sequence (Q8IW41 whole entry, looked up): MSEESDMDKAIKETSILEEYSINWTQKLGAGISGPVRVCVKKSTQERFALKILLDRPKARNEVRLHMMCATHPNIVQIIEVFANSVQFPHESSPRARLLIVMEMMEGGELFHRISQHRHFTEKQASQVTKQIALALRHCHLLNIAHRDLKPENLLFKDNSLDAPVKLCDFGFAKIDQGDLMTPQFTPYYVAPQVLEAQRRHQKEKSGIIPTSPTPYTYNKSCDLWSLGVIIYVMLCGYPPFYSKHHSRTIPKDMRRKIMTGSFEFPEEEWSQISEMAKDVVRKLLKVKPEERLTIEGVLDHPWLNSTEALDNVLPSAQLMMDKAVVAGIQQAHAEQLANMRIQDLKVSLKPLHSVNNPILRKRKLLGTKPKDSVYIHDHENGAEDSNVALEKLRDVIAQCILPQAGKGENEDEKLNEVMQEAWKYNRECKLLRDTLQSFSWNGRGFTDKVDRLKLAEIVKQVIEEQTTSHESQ
PRKX (human), sequence (P51817 whole entry, looked up): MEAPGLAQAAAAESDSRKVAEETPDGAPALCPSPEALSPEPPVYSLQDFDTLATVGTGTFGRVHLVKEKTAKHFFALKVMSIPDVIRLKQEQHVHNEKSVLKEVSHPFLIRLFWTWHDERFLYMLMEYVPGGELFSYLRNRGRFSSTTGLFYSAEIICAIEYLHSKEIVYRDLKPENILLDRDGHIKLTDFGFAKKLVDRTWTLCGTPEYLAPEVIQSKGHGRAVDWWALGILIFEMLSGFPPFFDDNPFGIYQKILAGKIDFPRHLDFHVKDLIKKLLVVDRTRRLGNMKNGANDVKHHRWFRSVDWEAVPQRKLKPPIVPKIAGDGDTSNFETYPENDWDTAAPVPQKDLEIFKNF
AURKC (human), sequence (Q9UQB9 whole entry, looked up): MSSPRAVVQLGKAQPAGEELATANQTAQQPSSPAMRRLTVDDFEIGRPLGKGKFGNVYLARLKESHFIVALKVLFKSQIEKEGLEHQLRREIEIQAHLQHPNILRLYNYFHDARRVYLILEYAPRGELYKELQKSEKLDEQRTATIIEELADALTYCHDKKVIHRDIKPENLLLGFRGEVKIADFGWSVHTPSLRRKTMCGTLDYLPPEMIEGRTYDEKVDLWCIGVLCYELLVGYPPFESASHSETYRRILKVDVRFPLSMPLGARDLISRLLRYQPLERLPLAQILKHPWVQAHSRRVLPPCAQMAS

Structure (SMILES)	kinase still bound, per cent of control (MAP3K9 (human)) [%]	kinase still bound, per cent of control (MLTK (human)) [%]	kinase still bound, per cent of control (MYLK (human)) [%]	kinase still bound, per cent of control (TAOK2 (human)) [%]	kinase still bound, per cent of control (TNIK (human)) [%]	kinase still bound, per cent of control (MARK3 (human)) [%]	kinase still bound, per cent of control (FGFR1 (human)) [%]	kinase still bound, per cent of control (PIK3CD (human)) [%]	kinase still bound, per cent of control (HIPK1 (human)) [%]	kinase still bound, per cent of control (MTOR (human)) [%]	kinase still bound, per cent of control (STK36 (human)) [%]	kinase still bound, per cent of control (TNNI3K (human)) [%]	kinase still bound, per cent of control (AURKC (human)) [%]	kinase still bound, per cent of control (SLK (human)) [%]	kinase still bound, per cent of control (ROS1 (human)) [%]	kinase still bound, per cent of control (PRKX (human)) [%]	kinase still bound, per cent of control (FRK (human)) [%]	kinase still bound, per cent of control (MYLK4 (human)) [%]	kinase still bound, per cent of control (PAK7 (human)) [%]	kinase still bound, per cent of control (TRPM6 (human)) [%]	also measured
C=CC(=O)Nc1cc(-n2c(=O)ccc3cnc4ccc(-c5cn[nH]c5)cc4c32)ccc1C	86	6.9	70	76	47	100	80	27	52	0	79	100	100	100	100	100	99	88	95	71	kinase still bound, per cent of control (STK3 (human)): 100%; kinase still bound, per cent of control (MAP3K11 (human)): 100%; kinase still bound, per cent of control [1]: 34%; kinase still bound, per cent of control (STK35 (human)): 98%; kinase still bound, per cent of control (NUAK1 (human)): 11%; kinase still bound, per cent of control (MAPKAPK5 (human)): 78%; kinase still bound, per cent of control (TAOK1 (human)): 22%; kinase still bound, per cent of control (HCK (human)): 100%; kinase still bound, per cent of control (TIE1 (human)): 100%; kinase still bound, per cent of control (MAPK11 (human)): 89%; kinase still bound, per cent of control (MKNK2 (human)): 0.15%; kinase still bound, per cent of control [2]: 100%; kinase still bound, per cent of control (SGK3 (human)): 96%; kinase still bound, per cent of control (RAF1 (human)): 100%; kinase still bound, per cent of control (CDK17 (human)): 92%; kinase still bound, per cent of control (EPHB1 (human)): 94%; kinase still bound, per cent of control (ERBB4 (human)): 22%; kinase still bound, per cent of control (RIPK1 (human)): 100%; kinase still bound, per cent of control (CAMK2G (human)): 45%; kinase still bound, per cent of control (PHKG2 (human)): 79%
NC(=O)Nc1cc(-c2cccc(F)c2)sc1C(=O)N[C@@H]1CCCNC1	0.15	40	3.3	35	0.1	0.85	1.3	100	7.2	72	74	7.3	0.7	0.05	2	0.7	0.65	51	0	74	kinase still bound, per cent of control [1]: 2.5%; kinase still bound, per cent of control (STK35 (human)): 1.1%; kinase still bound, per cent of control (NUAK1 (human)): 0%; kinase still bound, per cent of control (MAPKAPK5 (human)): 0.05%; kinase still bound, per cent of control (TAOK1 (human)): 4.8%; kinase still bound, per cent of control (HCK (human)): 0%; kinase still bound, per cent of control (TIE1 (human)): 7.2%; kinase still bound, per cent of control (MAPK11 (human)): 77%; kinase still bound, per cent of control (MKNK2 (human)): 0%; kinase still bound, per cent of control [2]: 0.6%; kinase still bound, per cent of control (SGK3 (human)): 27%; kinase still bound, per cent of control (RAF1 (human)): 100%; kinase still bound, per cent of control (CDK17 (human)): 84%; kinase still bound, per cent of control (EPHB1 (human)): 1.6%; kinase still bound, per cent of control (ERBB4 (human)): 4.4%; kinase still bound, per cent of control (RIPK1 (human)): 100%; kinase still bound, per cent of control (CAMK2G (human)): 24%; kinase still bound, per cent of control (PHKG2 (human)): 1.6%
COCC(=O)NC/C=C/c1ccc2ncnc(Nc3ccc(Oc4ccc(C)nc4)c(C)c3)c2c1	74	76	87	100	89	100	100	100	88	79	100	100	67	60	100	100	100	100	87	100	kinase still bound, per cent of control (STK3 (human)): 82%; kinase still bound, per cent of control (MAP3K11 (human)): 92%; kinase still bound, per cent of control (STK35 (human)): 65%; kinase still bound, per cent of control (NUAK1 (human)): 100%; kinase still bound, per cent of control (MAPKAPK5 (human)): 100%; kinase still bound, per cent of control (TAOK1 (human)): 94%; kinase still bound, per cent of control (TIE1 (human)): 100%; kinase still bound, per cent of control (MAPK11 (human)): 100%; kinase still bound, per cent of control (MKNK2 (human)): 1.4%; kinase still bound, per cent of control [2]: 81%; kinase still bound, per cent of control (SGK3 (human)): 100%; kinase still bound, per cent of control (RAF1 (human)): 100%; kinase still bound, per cent of control (CDK17 (human)): 100%; kinase still bound, per cent of control (EPHB1 (human)): 100%; kinase still bound, per cent of control (ERBB4 (human)): 0.9%; kinase still bound, per cent of control (RIPK1 (human)): 100%; kinase still bound, per cent of control (CAMK2G (human)): 94%; kinase still bound, per cent of control (PHKG2 (human)): 86%
